Molecules are shown by their SMILES.

Holding throughout (format): cell-based, Pseudomonas aeruginosa
Assay [1] relates to PA14 biofilms. Description: Impedance analysis (xCELLigence cell index) of PA14 biofilm growth rate / biofilm formation. On the procedure: The biomass Pseudomonas aeruginosa had been measured as an exemplary biomass. Eventually also other strains can be analyzed. The 96 E-Plate had been used for a measuring time of 43 hours. The fluid culture medium LB had been introduced into the receptacles together with wild type (WT) PA14, ΔpelA deletion mutant or ΔpqsA, respectively.
A significant linear reduction of the negative cell index occurs after about 35 hours and more preferably in the time frame of the 37 hours to 42 hours. Within this time frame of 37 hours to 42 hours, the directional cell index RK=(cell index[t2]−cell index[t1])/(t2−t1) is decreasing. Thus, for such a short time frame, the value of the cell index change provides the directional cell index RK, which corresponds to the linear relation between the capacitance and the reactance having the general form of a straight line. Optionally, and in particular in case of evaluating longer time frames, the growth rate of biofilm can be calculated as function of the natural logarithm of the cell index, e.g. by the formula RK=ln(cell index[t2]−cell index[t1])/(t2−t1).
The impedance method has also been used to study the effect of antibiotics on biofilm formation of P. aeruginosa PA14. The results of the impact of ciprofloxacin (A), tobramycin (B), and meropenem (C) on biofilm formation of PA14 are shown in FIGS. 8 to 10. As examples, the antibiotics ciprofloxacin (FIGS. 8a)-c)), tobramycin (FIGS. 9a)-c)) and meropenem (FIGS. 10a)-c)) have been tested. All three antibiotics changed the impedance curves in a concentration-dependent manner, indicating effects on biofilm formation.
The effect on impedance was quantified by three parameters at varying antibiotic concentrations:
The first parameter is the time of onset of a linear decrease of the cell index, (FIGS. 8a), 9a) and 10a)).
The second parameter is the duration of a linear decrease of the cell index. This duration was determined by a linear trendline that was fitted to the data with an r^2 value of 0.97 or higher. In the graphs of FIGS. 8a), 9a) and 10a), the black vertical bars represent the time period over which the biofilm formation rate was measured to be steady, based on a straight line assigned with an r^2 of at least 0.97 (n=3 or 4).
The third parameter was the cell index slope during that time period (FIGS. 8b), 9b) and 10b)). These graphs show the concentration dependency of the biofilm formation expressed in the slope/h of the cell index (n=3 or 4).

In assay [2] the test system is PA14. Description: Planktonic growth curves of PA14 by OD600 (control experiment).
Excerpt: OD600 indicates the absorbance, or optical density, of a sample measured at a wavelength of 600 nm and indicates the concentration of cells in a liquid.
For assay [3], the system named is PA14 biofilms. Description: Crystal violet analysis of PA14 biofilms, absorption at 620 nm. As to conditions: added to wild type WT PA14, LB medium, 96-Well-Plate, after 43 hours, compared to WT alone. On the procedure: FIG. 5—Diagram of PA 14 biofilms determined after 43 hours with crystal violet by monitoring absorption at 620 nm;
FIG. 5 is a diagram of various types of PA14 biofilms measured by use of the 96-Well-Plate after 43 hours by use of the fluid culture medium LB with crystal violet analysis by monitoring absorption at 620 nm.

Take `O=C(O)c1cn(C2CC2)c2cc(N3CCNCC3)c(F)cc2c1=O` [ciprofloxacin]: the “impedance curve reflecting biofilm formation” value in assay [1] (0.13 μg/mL) is recorded as “clearly changed the impedance curve”. In addition, the steady biofilm formation result in assay [1] (0.25 μg/mL) is listed as “not observed anymore”. The “cell index slope (biofilm formation)” value in assay [1] (at increasing concentrations) is recorded as “shallower decline”. Moreover, the planktonic growth result in assay [2] (0.13 μg/mL) is “not impaired”; in assay [2] (0.25 μg/mL), “still possible”.

With `NC[C@H]1O[C@H](O[C@H]2[C@H](O)[C@@H](O[C@H]3O[C@H](CO)[C@@H](O)[C@H](N)[C@H]3O)[C@H](N)C[C@@H]2N)[C@H](N)C[C@@H]1O` [tobramycin], the “cell index slope (biofilm formation)” value in assay [1] (at increasing concentrations) is listed as “shallower decline”.

As to `C[C@@H](O)[C@H]1C(=O)N2C(C(=O)O)=C(S[C@@H]3CN[C@H](C(=O)N(C)C)C3)[C@H](C)[C@H]12` [meropenem], in assay [1] (0.5 μg/ml), the “induction of biofilm formation (cell index slope)” value is given as “this effect vanished”. For the same compound, the “cell index slope (biofilm formation)” value in assay [1] (concentrations between 0.063 and 0.25 μg/ml) is on record as “induced biofilm formation”.

As for `N=C(N)NCCC[C@H](N)C(=O)O` [L-Arg, arginine], in assay [3], the “growth of biofilm (crystal violet)” value was “inhibits the growth of biofilm”. In addition, the “directional cell index RK” value in assay [1] (0.4% or 0.8% L-Arg added to wild type WT, evaluation time 37 to 42 hours) was “about −0.004 /h”. Further, the “reduction of the biofilm growth rate” value in assay [1] (0.4% or 0.8% L-Arg, PA14 WT, LB, evaluation time 37 to 42 hours) was “about ½”.

Source of the values: patent publication US10520488B2, “Method and measuring device for determination of the growth rate of biofilm” (Helmholtz-Zentrum fuer Infektionsforschung GmbH, priority 2014, dated 2019).
